According to PubChem BioAssay (NCI):
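These data come from cells grown in 96-well plates and exposed to compound for 48 hours at five concentrations. TGI is the concentration that stops growth completely.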

Assays:
Test in all cases: NCI tumour cell line growth inhibition, 48 h
786-0 renal = tested on: 786-0 renal
A498 renal = tested on: A498 renal
A549 NSCLC = tested on: A549 NSCLC
ACHN renal = tested on: ACHN renal
CAKI-1 renal = tested on: CAKI-1 renal
CCRF-CEM leukemia = tested on: CCRF-CEM leukemia
COLO 205 colon = tested on: COLO 205 colon
DU-145 prostate = tested on: DU-145 prostate
EKVX NSCLC = tested on: EKVX NSCLC
HCC-2998 colon = tested on: HCC-2998 colon
HCT-116 colon = tested on: HCT-116 colon
HCT-15 colon = tested on: HCT-15 colon
HL-60(TB) leukemia = tested on: HL-60(TB) leukemia
HOP-62 NSCLC = tested on: HOP-62 NSCLC
HOP-92 NSCLC = tested on: HOP-92 NSCLC
HS 578T breast = tested on: HS 578T breast
HT29 colon = tested on: HT29 colon
IGROV1 ovarian = tested on: IGROV1 ovarian
K-562 leukemia = tested on: K-562 leukemia
KM12 colon = tested on: KM12 colon
LOX IMVI melanoma = tested on: LOX IMVI melanoma
M14 melanoma = tested on: M14 melanoma
MALME-3M melanoma = tested on: MALME-3M melanoma
MCF7 breast = tested on: MCF7 breast
MDA-MB-231 breast = tested on: MDA-MB-231 breast
MDA-MB-435 = tested on: MDA-MB-435
MDA-N = tested on: MDA-N
MOLT-4 leukemia = tested on: MOLT-4 leukemia
NCI-H226 lung = tested on: NCI-H226 lung
NCI-H23 lung = tested on: NCI-H23 lung
NCI-H460 lung = tested on: NCI-H460 lung
NCI/ADR-RES ovarian = tested on: NCI/ADR-RES ovarian
OVCAR-3 ovarian = tested on: OVCAR-3 ovarian
OVCAR-4 ovarian = tested on: OVCAR-4 ovarian
OVCAR-5 ovarian = tested on: OVCAR-5 ovarian
OVCAR-8 ovarian = tested on: OVCAR-8 ovarian
PC-3 prostate = tested on: PC-3 prostate
RPMI-8226 leukemia = tested on: RPMI-8226 leukemia
RXF 393 renal = tested on: RXF 393 renal
SF-268 CNS = tested on: SF-268 CNS
SF-295 CNS = tested on: SF-295 CNS
SF-539 CNS = tested on: SF-539 CNS
SK-MEL-2 melanoma = tested on: SK-MEL-2 melanoma
SK-MEL-28 melanoma = tested on: SK-MEL-28 melanoma
SK-MEL-5 melanoma = tested on: SK-MEL-5 melanoma
SK-OV-3 ovarian = tested on: SK-OV-3 ovarian
SN12C renal = tested on: SN12C renal
SNB-19 CNS = tested on: SNB-19 CNS
SNB-75 CNS = tested on: SNB-75 CNS
SR leukemia = tested on: SR leukemia
SW-620 colon = tested on: SW-620 colon
T-47D breast = tested on: T-47D breast
TK-10 renal = tested on: TK-10 renal
U251 CNS = tested on: U251 CNS
UACC-257 melanoma = tested on: UACC-257 melanoma
UO-31 renal = tested on: UO-31 renal
BT-549 breast = tested on: BT-549 breast
NCI-H522 lung = tested on: NCI-H522 lung
UACC-62 melanoma = tested on: UACC-62 melanoma

For `O=C(NC(Cl)(C(F)(F)F)C(F)(F)F)c1ccc(F)cc1`, the TGI (786-0 renal) was over 100 µM, the TGI (A498 renal) was over 100 µM and the TGI (A549 NSCLC) was over 100 µM. It also gave a TGI (ACHN renal) of over 100 µM, a TGI (CAKI-1 renal) of over 100 µM and a TGI (CCRF-CEM leukemia) of over 100 µM. For the same molecule, the TGI (COLO 205 colon) was over 100 µM, the TGI (DU-145 prostate) was over 100 µM and the TGI (EKVX NSCLC) was over 100 µM. The TGI (HCC-2998 colon) was over 100 µM, the TGI (HCT-116 colon) was over 100 µM and the TGI (HCT-15 colon) was over 100 µM. For the same molecule, the TGI (HL-60(TB) leukemia) was over 100 µM, the TGI (HOP-62 NSCLC) was over 100 µM and the TGI (HOP-92 NSCLC) was over 100 µM. It also gave a TGI (HS 578T breast) of over 100 µM, a TGI (HT29 colon) of over 100 µM and a TGI (IGROV1 ovarian) of over 100 µM. For the same molecule, the TGI (K-562 leukemia) was over 100 µM, the TGI (KM12 colon) was over 100 µM and the TGI (LOX IMVI melanoma) was over 100 µM. For the same molecule, the TGI (M14 melanoma) was over 100 µM, the TGI (MALME-3M melanoma) was over 100 µM and the TGI (MCF7 breast) was over 100 µM. It also gave a TGI (MDA-MB-231 breast) of over 100 µM, a TGI (MDA-MB-435) of over 100 µM and a TGI (MDA-N) of over 100 µM. It also gave a TGI (MOLT-4 leukemia) of over 100 µM, a TGI (NCI-H226 lung) of over 100 µM and a TGI (NCI-H23 lung) of over 100 µM. The TGI (NCI-H460 lung) was over 100 µM, the TGI (NCI/ADR-RES ovarian) was over 100 µM and the TGI (OVCAR-3 ovarian) was over 100 µM. It also gave a TGI (OVCAR-4 ovarian) of over 100 µM, a TGI (OVCAR-5 ovarian) of over 100 µM and a TGI (OVCAR-8 ovarian) of over 100 µM. For the same molecule, the TGI (PC-3 prostate) was over 100 µM, the TGI (RPMI-8226 leukemia) was over 100 µM and the TGI (RXF 393 renal) was over 100 µM. For the same molecule, the TGI (SF-268 CNS) was over 100 µM, the TGI (SF-295 CNS) was over 100 µM and the TGI (SF-539 CNS) was over 100 µM. The TGI (SK-MEL-2 melanoma) was over 100 µM, the TGI (SK-MEL-28 melanoma) was over 100 µM and the TGI (SK-MEL-5 melanoma) was over 100 µM. For the same molecule, the TGI (SK-OV-3 ovarian) was over 100 µM, the TGI (SN12C renal) was over 100 µM and the TGI (SNB-19 CNS) was over 100 µM. It also gave a TGI (SNB-75 CNS) of 91.6 µM, a TGI (SR leukemia) of over 100 µM and a TGI (SW-620 colon) of over 100 µM. The TGI (T-47D breast) was over 100 µM, the TGI (TK-10 renal) was over 100 µM and the TGI (U251 CNS) was over 100 µM. For the same molecule, the TGI (UACC-257 melanoma) was over 100 µM and the TGI (UO-31 renal) was over 100 µM.
With `CC(C)(C)n1c(=O)n2n(c1=O)Cc1cccc3cccc(c13)C2` the TGI (786-0 renal) was 45.1 µM, the TGI (A549 NSCLC) was over 100 µM and the TGI (ACHN renal) was 44.7 µM. It also gave a TGI (BT-549 breast) of 95.3 µM, a TGI (CAKI-1 renal) of 36.9 µM and a TGI (CCRF-CEM leukemia) of 24.6 µM. The TGI (COLO 205 colon) was 72.3 µM, the TGI (DU-145 prostate) was over 100 µM and the TGI (EKVX NSCLC) was over 100 µM. It also gave a TGI (HCC-2998 colon) of 45.6 µM, a TGI (HCT-116 colon) of 33.8 µM and a TGI (HCT-15 colon) of 39.5 µM. For the same molecule, the TGI (HOP-62 NSCLC) was 33.2 µM, the TGI (HOP-92 NSCLC) was 69.2 µM and the TGI (HS 578T breast) was 61.1 µM. The TGI (HT29 colon) was 39.7 µM, the TGI (IGROV1 ovarian) was 38.5 µM and the TGI (K-562 leukemia) was 35.4 µM. For the same molecule, the TGI (KM12 colon) was 34 µM, the TGI (LOX IMVI melanoma) was 73.5 µM and the TGI (M14 melanoma) was 34.1 µM. The TGI (MALME-3M melanoma) was 31.7 µM, the TGI (MCF7 breast) was 92.4 µM and the TGI (MDA-MB-231 breast) was over 100 µM. For the same molecule, the TGI (MDA-MB-435) was 62 µM, the TGI (MDA-N) was 50.8 µM and the TGI (MOLT-4 leukemia) was 93.8 µM. The TGI (NCI-H23 lung) was over 100 µM, the TGI (NCI-H460 lung) was 23.9 µM and the TGI (NCI-H522 lung) was 13.6 µM. The TGI (NCI/ADR-RES ovarian) was 37.1 µM, the TGI (OVCAR-3 ovarian) was 35.1 µM and the TGI (OVCAR-4 ovarian) was 50.3 µM. It also gave a TGI (OVCAR-5 ovarian) of 35.1 µM, a TGI (OVCAR-8 ovarian) of 69.9 µM and a TGI (PC-3 prostate) of 30.5 µM. It also gave a TGI (RPMI-8226 leukemia) of 71.6 µM, a TGI (RXF 393 renal) of 27.1 µM and a TGI (SF-268 CNS) of 49.1 µM. For the same molecule, the TGI (SF-295 CNS) was 54.2 µM, the TGI (SF-539 CNS) was 36.4 µM and the TGI (SK-MEL-2 melanoma) was 38.2 µM. The TGI (SK-MEL-28 melanoma) was 58.8 µM, the TGI (SK-MEL-5 melanoma) was over 100 µM and the TGI (SK-OV-3 ovarian) was 93.3 µM. For the same molecule, the TGI (SN12C renal) was 46.3 µM, the TGI (SNB-19 CNS) was over 100 µM and the TGI (SNB-75 CNS) was 66.4 µM. The TGI (SR leukemia) was 42.3 µM, the TGI (SW-620 colon) was 35.9 µM and the TGI (TK-10 renal) was over 100 µM. The TGI (U251 CNS) was 33.9 µM, the TGI (UACC-257 melanoma) was 89.6 µM and the TGI (UACC-62 melanoma) was 82.5 µM. It also gave a TGI (UO-31 renal) of 53.1 µM.
